# Results published in patent US20230338362A1 (priority 2020, published 2023).
# Tests used:
# [1] = tested on: macrophages treated with SARS-CoV-2 Spike protein; assay type: cell-based, human
# [2] = tested on: macrophages treated with SARS-CoV-2 Spike protein; assay type: cell-based, human; remark: listed apart in the source
# Note: test concentration or dose not given here.
SMILES,anti-inflammatory cytokines [1],expression of cytokine modulators / anti-inflammatory cytokines [1],expression of pro-inflammatory cytokines [1],pro-inflammatory cytokines [1],apoptosis by activation of caspase 3 [2],apoptosis by caspase 3 activation [2]
"O=c1cc(-c2ccccc2)oc2cc(O)c(O)c(O)c12 [baicalein, 5,6,7-trihydroxy-2-phenylchromen-4-one]",inducing anti-inflammatory cytokines such as IL-10,activated expression of cytokine modulators IL-10 and IFN-γ,"inhibited expression of pro-inflammatory cytokines IL-1α, IL-8, GRO, MCP-1, MIP-1α, MIP-1β, MMP-9 and TNF-α","selectively inhibited pro-inflammatory cytokine, such as IL-1α, IL-8, GRO, MCP-1, MIP-1α, MIP-1β, MMP-9 and TNF-α",selectively induces apoptosis,induced apoptosis
"O=C(/C=C/c1ccccc1)Nc1ccccc1 [cinnamanilide, (E)-N,3-diphenylprop-2-enamide]",inducing anti-inflammatory cytokines such as IL-10,activated expression of cytokine modulator IL-10,"inhibited expression of pro-inflammatory cytokines IL-1α, VEGF, IL-6, IL-8, IL-13, GM-CSF, MIP-1α, MIP-1β, MMP-9 and RANTES","selectively inhibited pro-inflammatory cytokine, such as IL-1α, VEGF, IL-6, IL-8, IL-13, GM-CSF, MIP-1α, MIP-1β, MMP-9 and RANTES",,
"COc1ccc(-c2coc3cc(O)ccc3c2=O)cc1 [formononetin, 7-hydroxy-3-(4-methoxyphenyl)chromen-4-one]","inducing anti-inflammatory cytokines, such as IL-10 and IFN-γ",activated expression of cytokine modulators IL-10 and IFN-γ,"inhibited expression of pro-inflammatory cytokines VEGF, IL-6, IL-8, GRO, MCP-1, MIP-1α, MIP-1β, MMP-9 and RANTES","selectively inhibited pro-inflammatory cytokine, such as VEGF, IL-6, IL-8, GRO, MCP-1, MIP-1α, MIP-1β, MMP-9 and RANTES",selectively induces apoptosis,induced apoptosis
"CC(C)=CCc1cc([C@@H]2CCc3ccc(O)cc3O2)c(CC=C(C)C)c(O)c1O [kazinol A, 4-[(2S)-7-hydroxy-3,4-dihydro-2H-chromen-2-yl]-3,6-bis(3-methylbut-2-enyl)benzene-1,2-diol]",inducing anti-inflammatory cytokines such as IL-10,activated expression of cytokine modulator IL-10,"inhibited expression of pro-inflammatory cytokines IL-1α, IL-4, IL-8, MIP-1β and MMP-9","selectively inhibited pro-inflammatory cytokine, such as IL-1α, IL-4, IL-8, MIP-1β and MMP-9",selectively induces apoptosis,induced apoptosis
